In patent US11377473B2, “Albumin-binding prodrugs of auristatin E derivatives” (priority 2017, dated 2022):

Legend:
[1] = tested on: NSCLC xenograft model LXFA737; assay: Human non-small cell lung cancer model LXFA737, small tumors; type: in vivo, NMRI nude mice; details: for p, antitumor efficacy versus auristatin E: 8 times twice weekly, day 56 and 63
Description: Mice were kept under a 14-hour light/10-hour dark, artificial light cycle. The animals were fed with autoclaved Teklad Global 19% Protein Extruded Diet (T.2019S.12) from Envigo RMS SARL and had access to sterile filtered and acidified (pH 2.5) tap water which was changed twice weekly. Feed and water were provided ad libitum. […] Animals were routinely monitored twice daily on working days and daily on Saturdays and Sundays. Starting on day 0, animals were weighed twice a week. Relative body weights (RBW) of individual animals were calculated by dividing the individual absolute body weight on day X (BWx) by the individual body weight on the day of randomization multiplied by 100%. […] Tumor volumes were calculated according to the following equation: […]
Statistical analysis was only carried out if at least 50% of the initially randomized animals in a relevant group were still alive. Comparisons between test groups were carried out for the same days. By convention, p-values ≤0.05 indicate significance of tumor inhibition. Statistical calculations were performed using GraphPad Prism bioanalytic software (San Diego Calif. USA, www.graphpad.com).
The evaluation of auristatin E and the albumin-binding auristatin E derivative AE-Keto-Sulf07 in a human non-small cell lung cancer model LXFA737 was carried out as described in the general procedure for patient-derived xenograft models.
Sample preparation: 38 mg weighed in a 30 mL vial dissolved in 23.8 mL 50/50 tert-butanol/10 mM sodium citrate buffer, 5% sucrose—pH 6; 1.2 mL were aliquoted in 4 mL vials.
The evaluation of auristatin E and the albumin-binding auristatin E derivative AE-Ester-Sulf07 in a human non-small cell lung cancer model LXFA737 was carried out as described in the general procedure for patient-derived xenograft models.

[2] = tested on: malignant melanoma cancer model A375; assay: Human malignant melanoma cancer model A375, large tumors; type: in vivo, NMRI nude mice
Method: Feed and water were provided ad libitum. […] Identification used: ear mark and cage labels. […] Tumor volumes were calculated according to the following equation: […]
The evaluation of auristatin E and the albumin-binding auristatin E derivative AE-Keto-Sulf07 in a human malignant melanoma cancer model A375 was carried out as described in the general procedure for cell-line-derived xenograft models.
(§1) Stock solutions were prepared as follows: • 1) 7 mice, 28 g average weight, 310 mm^3 average median tumor volume on day of randomization: 0.3 mg/kg auristatin E TFA salt (AE equiv.) dosed twice weekly for 3 weeks on day 1, 6, 9, 13, 16≡0.35 mg/kg≡7.1 μg/20 g mouse.
The evaluation of auristatin E and the albumin-binding auristatin E derivative AE-Ester-Sulf07 in a human malignant melanoma cancer model A375 was carried out as described in the general procedure for cell-line-derived xenograft models.
as §1, with “Based on the dosing experience in the RXF631 xenograft model, stock” for “Stock”, “16=0.35” for “16≡0.35”

[3] = tested on: human tumor xenograft models; assay: Antitumor activity in human tumor xenograft mice models (overall statement); type: in vivo, nude mice; details: starting tumor volumes approximately 130-170 mm^3 and up to approximately 380 mm^3
[4] = 2.4 mg/kg five times twice weekly

## CC[C@H](C)[C@@H]([C@@H](CC(=O)N1CCC[C@H]1[C@H](OC)[C@@H](C)C(=O)N[C@H](C)[C@@H](O)c1ccccc1)OC)N(C)C(=O)[C@@H](NC(=O)[C@H](C(C)C)N(C)C)C(C)C [auristatin E]
[1]; 0.3 mg/kg 8 times twice weekly, temporarily, day 21 to day 42
  tumor response: stable disease (stable disease >75-125%)
[2]; 0.3 mg/kg five times twice weekly, initial, until day 14
  tumor response: stable disease (stable disease >75-125%)
[3]
  antitumor activity in all human tumor xenografts evaluated: principally inactive

## CC[C@H](C)[C@@H]([C@@H](CC(=O)N1CCC[C@H]1[C@H](OC)[C@@H](C)C(=O)N[C@H](C)C(=NNC(=O)c1ccc(NC(=O)CCCCCN2C(=O)C=CC2=O)cc1S(=O)(=O)O)c1ccccc1)OC)N(C)C(=O)[C@@H](NC(=O)[C@H](C(C)C)N(C)C)C(C)C [AE-Keto-Sulf07, 2-(2-((R)-2-((2R,3R)-3-((S)-1-((3R,4S,5S)-4-((S)-2-((S)-2-(dimethylamino)-3-methylbutanamido)-N,3-dimethylbutanamido)-3-methoxy-5-methylheptanoyl)pyrrolidin-2-yl)-3-methoxy-2-methylpropanamido)-1-phenylpropylidene)hydrazine-1-carbonyl)-5-(6-(2,5-dioxo-2,5-dihydro-1H-pyrrol-1-yl)hexanamido)benzenesulfonic acid]
[1]; 4.5 mg/kg 8 times twice weekly, reached on day 28, until end of study on day 74
  tumor response: complete tumor remission
[1]; 4.5 mg/kg (polysorbate 80 and 2-HPßCD buffers) versus auristatin E 0.3 mg/kg
  p, antitumor efficacy versus auristatin E: < 0.01
[1]; 4.5 mg/kg administered in polysorbate 80
  animals lost: two mice had to be sacrificed for general bad conditions
[1]; 4.5 mg/kg in 2-HPßCD, day 32
  maximum body weight loss: −7%
[1]; 4.5 mg/kg, until end of study on day 74, independently of the buffer
  tumor volume: unmeasurable level
[2]; 6.5 mg/kg five times twice weekly
  animals lost: two mice had to be sacrificed for general bad conditions
[2]; 6.5 mg/kg five times twice weekly, day 19 until end of study on day 37
  tumor response: complete remission (complete remission <10%)
[2]; 6.5 mg/kg versus auristatin E 0.3 mg/kg, five injections twice weekly, day 9 until day 33
  p, antitumor effect versus auristatin E: < 0.01
[2]; 6.5 mg/kg, day 28
  minimum tumor volume: 1 mm^3
[2]; 6.5 mg/kg, day 37
  tumor volume at the end of the study: ~14 mm^3
[2]; 6.5 mg/kg, reached on day 21
  transient body weight loss: 13%
[3]
  antitumor activity in all human tumor xenografts evaluated: partial and complete remissions

## 2-(2-(1-(4-(((1S,2R)-2-((2R,3R)-3-((S)-1-((3R,4R,5S)-4-((S)-2-((R)-2-(dimethylamino)-3-methylbutanamido)-N,3-dimethylbutanamido)-3-methoxy-5-methylheptanoyl)pyrrolidin-2-yl)-3-methoxy-2-methylpropanamido)-1-phenylpropoxy)carbonyl)phenyl)ethylidene)hydrazine-1-carbonyl)-5-(6-(2,5-dioxo-2,5-dihydro-1H-pyrrol-1-yl)hexanamido)benzenesulfonic acid [AE-Ester-Sulf07]
[1]; 2.4 mg/kg 8 times twice weekly
  animals lost: five mice had to be euthanized due to a combination of body weight loss and skin lesions
[1]; 2.4 mg/kg 8 times twice weekly, reached on day 21, until end of study on day 74
  tumor response: complete tumor remission
[1]; 2.4 mg/kg versus auristatin E 0.3 mg/kg
  p, antitumor efficacy versus auristatin E: < 0.05
[1]; 2.4 mg/kg, until end of study on day 74
  tumor volume: unmeasurable level
[2]; 2.4 mg/kg (2% polysorbate 80 or 4% 2-HPßCD) versus auristatin E 0.3 mg/kg, five injections twice weekly, day 9 to 33
  p, antitumor improvement versus auristatin E: < 0.01
[2]; [4]
  body weight change: No significant body weight change compared to the control
  side effects: wounds due to biting and scratching were observed starting from day 9
[2]; 2.4 mg/kg five times twice weekly, day 16 until end of study on day 37
  tumor response: almost complete remission
[2]; 2.4 mg/kg reconstituted with 2% polysorbate 80, day 23
  minimum tumor volume: 4 mm^3
[2]; 2.4 mg/kg reconstituted with 4% 2-HPßCD, day 26
  minimum tumor volume: 1 mm^3
[2]; 2.4 mg/kg, 2% polysorbate 80 group
  animals lost: Only one mouse
[3]
  antitumor activity in all human tumor xenografts evaluated: partial and complete remissions
